System: HeLa cells
Assay: Cell viability assay (Cell-Titer-Glo) of emulsions, one hour
Type: cell-based
Procedure: HeLa cells (obtained from American Type Culture Collection) were maintained in Dulbecco's Modified Eagle's Medium (Gibco) supplemented with 10% fetal bovine serum (Invitrogen) at 37° C. in a humidified 5% CO2 atmosphere. For viability assays testing biocompatibility of the emulsions, cells were plated in a 96-well white opaque plate format at 40,000 cells per well, allowed to seed overnight, and then treated with emulsions at indicated concentrations for one hour. These viability assays utilized the Cell-Titer-Glo 2.0 reagent (Promega, G9243) according to the manufacturer's instructions. Briefly, 100 μL of Cell-Titer-Glo 2.0 reagent, diluted at 1:1 with culture media, was added to each well containing 100 μl emultion-particles-containing media. Plates were gently agitated for 2 minutes and incubated at room temperature for 10 minutes in the dark to promote adequate mixing. Luminescence was subsequently measured using a Victor 5 plate reader (Perkin Elmer). The intensity of luminescence was normalized to that of cells with no emulsion particles added.

For Pluronic F127, the “biocompatibility of emulsion surfactants” value was “biocompatible and nontoxic to the cells”.
In the case of Tween 80, the “biocompatibility of emulsion surfactants” value is reported as “only Pluronic F127 was found to be biocompatible and nontoxic”.

Reference: US20240110150A1, “PHOTON UPCONVERSION BIOMATERIALS, MICELLE AND NANOPARTICLES FOR THREE-DIMENSIONAL (3D) OPTOGENETICS” (THE TRUESTEES OF COLUMBIA UNIVERSITY IN THE CITY OF NEW YORK, priority 2020, published 2024)
